Measured values reported in patent US9242993B2, “Morpholino substituted bicyclic pyrimidine urea or carbamate derivatives as mTOR inhibitors” (CELLZOME LIMITED, priority 2011, dated 2016).

How the values were obtained:
[1] = test system: S6RP serine-240/244 phosphorylation; test: In vitro phospho-S6 cellular assay; assay type: cell-based; conditions: Homo sapiens; HEK293T/17 cells, 2 hours; read-out: pS6 inhibition value (IC50), activity level
Text: Activation of mTOR signaling results in phosphorylation of several downstream targets. In cells, mTOR exists in two different protein complexes. The mTOR Complex-1 (mTORC1) phosphorylates and activates S6 Kinase 1 (S6K1) and S6 Kinase 2 (S6K2) (also known as p70S6K) which then phosphorylate S6 Ribosomal Protein (S6RP) (also known as RPS6)3. S6RP is phosphorylated on serine 235, serine 236, serine 240 and serine 244 by both pS6K1 and pS6K2. The mTOR Complex-2 (mTORC2) phosphorylates AKT on serine 473 which activates the AKT signaling pathway.
The assay measures a test compound's inhibition of S6RP serine-240/244 phosphorylation and inhibition of Akt serine-473 phosphorylation in human embryonic kidney derived HEK293T/17 cells (ATCC CRL-11268).
The HEK293T/17 cell line is maintained in DMEM media (Invitrogen catalogue number 41965-039) supplemented with 10% FCS at 37° C. in a 5% CO2 humidified incubator.
Cells are seeded in 96-well plates at 40,000 cells/well (pS6RP S240/244 assay) or 80,000 cells/well (pAkt S473 assay) in 90 μl growth media (DMEM, 2% FCS). Plates are incubated for 1 hour in a humidified incubator to allow the cells to adhere. Cells are treated with 8 concentrations of test compounds or DMSO alone for controls (final DMSO concentration 0.1%) and incubated at 37° C. for 2 hours. Then 20 μl of 5× concentrated lysis buffer (750 mM NaCl, 100 mM Tris pH7.4, 5 mM ADTA, 5 mM EGTA, 5% Triton X-100) is added, plates are sealed and incubated for 15 minutes at 4° C. with gentle shaking. After cell lysis, 25 μl cell lysate is transferred to a MesoScale plate coated with an antibody to pS6RP Ser240/244 (MesoScale Discovery K150DGD-3) or an antibody to pAkt Ser 473 (MesoScale Discovery K151DGD-3). Plates have been blocked before by incubation with 150 μl MesoScale Discovery Blocking Solution-A for 1 hour at room temperature followed by washing with 150 μl 1× Tris wash buffer per well. After the transfer of the cell lysate to the MSD plate, the pS6RP (or pAkt) protein is captured on the coated antibody by incubation at room temperature for 1 hour with gentle shaking. After the capture step the plate is washed three times with 150 μl of 1× Tris wash buffer per well. Then 25 μl detection antibody conjugated with a Sulfo-Tag is added and incubated for 1 hour at room temperature with gentle shaking. Subsequently the antibody solution is removed and the plate is washed 3 times with 150 μl 1× Tris wash buffer per well and 150 μl Read buffer is added. The plates are analysed on a MSD 2400 Plate Reader (MesoScale Discovery). Data analysis is performed using nonlinear regression for a sigmoidal dose-response with a variable slope.

mTOR = mTOR (Homo sapiens, UniProt P42345); test: biochemical
[2] = target: DNA-dependent protein kinase (DNA-PK) (Homo sapiens, UniProt P78527); test: biochemical
[3] = test system: IFNγ release in whole blood; test: In vitro human whole blood assay (IFNγ release); assay type: cell-based; conditions: αCD3/αCD28 and IL-2 stimulation, 18 hours, read-out: WB inhibition value (pIC50) (converted)
Protocol: This assay measures IFNγ release in whole blood after αCD3/αCD28 and IL-2 treatment. The whole blood contains circulating T lymphocytes; αCD3/αCD28 stimulation mimics antigen receptor signalling, resulting in epigenetic changes to the IFNG gene locus, such that when IL-2 is added, IFNγ is produced.
Human whole blood, with Na-heparin as the anticoagulant, is obtained from Clinical Trials Laboratory Services. Blood is diluted 1.4 times with RPMI 1640 (Lonza, BE12-167F) and 175 μl/well is distributed in a low evaporation 96-well plates (Falcon, BD Labware, 353072). Blood is treated with 10 concentrations of test compounds or DMSO alone for controls (final DMSO concentration 0.2%) and incubated at 37° C. for 1 hour. Blood is then stimulated with 1 μg/ml αCD3 (R&D Systems, MAB100), 1 μg/ml αCD28 (BD Pharmingen, 555725) and IL-2 at 10 ng/ml (Peprotech, 200-02). Blood is then left to incubate at 37° C. for 18 hours. After, plates are spun at 250 g for 5 minutes to pellet blood cells and 25 μl of plasma is transferred to a MesoScale plate coated with an antibody to IFNγ (MesoScale Discovery K151AEC-2) containing 25 μl/well MesoScale Discovery Blocking Solution-2. Plates have been blocked by incubating with 25 μl/well MesoScale Discovery Blocking Solution-2 for 30 minutes at room temperature. After the transfer of sera to the MSD plate, the IFNγ protein is captured on the coated antibody by incubation at room temperature for 2 hour with gentle shaking. After the capture step the plate is washed three times with 150 μl/well of 1×PBS-Tween wash buffer and 25 μl/well detection antibody conjugated with a Sulfo-Tag is added and incubated for 2 hours at room temperature with gentle shaking. Subsequently the antibody solution is removed and the plate is washed 3 times with 150 μl/well 1×PBS-Tween wash buffer and 150 μl/well MesoScale Discovery Read buffer is added. The plates are analysed on a MSD 2400 Plate Reader (MesoScale Discovery). Data analysis is performed using nonlinear regression for a sigmoidal dose-response with a variable slope.

DNA-dependent protein kinase (DNA-PK), sequence (P78527 whole entry): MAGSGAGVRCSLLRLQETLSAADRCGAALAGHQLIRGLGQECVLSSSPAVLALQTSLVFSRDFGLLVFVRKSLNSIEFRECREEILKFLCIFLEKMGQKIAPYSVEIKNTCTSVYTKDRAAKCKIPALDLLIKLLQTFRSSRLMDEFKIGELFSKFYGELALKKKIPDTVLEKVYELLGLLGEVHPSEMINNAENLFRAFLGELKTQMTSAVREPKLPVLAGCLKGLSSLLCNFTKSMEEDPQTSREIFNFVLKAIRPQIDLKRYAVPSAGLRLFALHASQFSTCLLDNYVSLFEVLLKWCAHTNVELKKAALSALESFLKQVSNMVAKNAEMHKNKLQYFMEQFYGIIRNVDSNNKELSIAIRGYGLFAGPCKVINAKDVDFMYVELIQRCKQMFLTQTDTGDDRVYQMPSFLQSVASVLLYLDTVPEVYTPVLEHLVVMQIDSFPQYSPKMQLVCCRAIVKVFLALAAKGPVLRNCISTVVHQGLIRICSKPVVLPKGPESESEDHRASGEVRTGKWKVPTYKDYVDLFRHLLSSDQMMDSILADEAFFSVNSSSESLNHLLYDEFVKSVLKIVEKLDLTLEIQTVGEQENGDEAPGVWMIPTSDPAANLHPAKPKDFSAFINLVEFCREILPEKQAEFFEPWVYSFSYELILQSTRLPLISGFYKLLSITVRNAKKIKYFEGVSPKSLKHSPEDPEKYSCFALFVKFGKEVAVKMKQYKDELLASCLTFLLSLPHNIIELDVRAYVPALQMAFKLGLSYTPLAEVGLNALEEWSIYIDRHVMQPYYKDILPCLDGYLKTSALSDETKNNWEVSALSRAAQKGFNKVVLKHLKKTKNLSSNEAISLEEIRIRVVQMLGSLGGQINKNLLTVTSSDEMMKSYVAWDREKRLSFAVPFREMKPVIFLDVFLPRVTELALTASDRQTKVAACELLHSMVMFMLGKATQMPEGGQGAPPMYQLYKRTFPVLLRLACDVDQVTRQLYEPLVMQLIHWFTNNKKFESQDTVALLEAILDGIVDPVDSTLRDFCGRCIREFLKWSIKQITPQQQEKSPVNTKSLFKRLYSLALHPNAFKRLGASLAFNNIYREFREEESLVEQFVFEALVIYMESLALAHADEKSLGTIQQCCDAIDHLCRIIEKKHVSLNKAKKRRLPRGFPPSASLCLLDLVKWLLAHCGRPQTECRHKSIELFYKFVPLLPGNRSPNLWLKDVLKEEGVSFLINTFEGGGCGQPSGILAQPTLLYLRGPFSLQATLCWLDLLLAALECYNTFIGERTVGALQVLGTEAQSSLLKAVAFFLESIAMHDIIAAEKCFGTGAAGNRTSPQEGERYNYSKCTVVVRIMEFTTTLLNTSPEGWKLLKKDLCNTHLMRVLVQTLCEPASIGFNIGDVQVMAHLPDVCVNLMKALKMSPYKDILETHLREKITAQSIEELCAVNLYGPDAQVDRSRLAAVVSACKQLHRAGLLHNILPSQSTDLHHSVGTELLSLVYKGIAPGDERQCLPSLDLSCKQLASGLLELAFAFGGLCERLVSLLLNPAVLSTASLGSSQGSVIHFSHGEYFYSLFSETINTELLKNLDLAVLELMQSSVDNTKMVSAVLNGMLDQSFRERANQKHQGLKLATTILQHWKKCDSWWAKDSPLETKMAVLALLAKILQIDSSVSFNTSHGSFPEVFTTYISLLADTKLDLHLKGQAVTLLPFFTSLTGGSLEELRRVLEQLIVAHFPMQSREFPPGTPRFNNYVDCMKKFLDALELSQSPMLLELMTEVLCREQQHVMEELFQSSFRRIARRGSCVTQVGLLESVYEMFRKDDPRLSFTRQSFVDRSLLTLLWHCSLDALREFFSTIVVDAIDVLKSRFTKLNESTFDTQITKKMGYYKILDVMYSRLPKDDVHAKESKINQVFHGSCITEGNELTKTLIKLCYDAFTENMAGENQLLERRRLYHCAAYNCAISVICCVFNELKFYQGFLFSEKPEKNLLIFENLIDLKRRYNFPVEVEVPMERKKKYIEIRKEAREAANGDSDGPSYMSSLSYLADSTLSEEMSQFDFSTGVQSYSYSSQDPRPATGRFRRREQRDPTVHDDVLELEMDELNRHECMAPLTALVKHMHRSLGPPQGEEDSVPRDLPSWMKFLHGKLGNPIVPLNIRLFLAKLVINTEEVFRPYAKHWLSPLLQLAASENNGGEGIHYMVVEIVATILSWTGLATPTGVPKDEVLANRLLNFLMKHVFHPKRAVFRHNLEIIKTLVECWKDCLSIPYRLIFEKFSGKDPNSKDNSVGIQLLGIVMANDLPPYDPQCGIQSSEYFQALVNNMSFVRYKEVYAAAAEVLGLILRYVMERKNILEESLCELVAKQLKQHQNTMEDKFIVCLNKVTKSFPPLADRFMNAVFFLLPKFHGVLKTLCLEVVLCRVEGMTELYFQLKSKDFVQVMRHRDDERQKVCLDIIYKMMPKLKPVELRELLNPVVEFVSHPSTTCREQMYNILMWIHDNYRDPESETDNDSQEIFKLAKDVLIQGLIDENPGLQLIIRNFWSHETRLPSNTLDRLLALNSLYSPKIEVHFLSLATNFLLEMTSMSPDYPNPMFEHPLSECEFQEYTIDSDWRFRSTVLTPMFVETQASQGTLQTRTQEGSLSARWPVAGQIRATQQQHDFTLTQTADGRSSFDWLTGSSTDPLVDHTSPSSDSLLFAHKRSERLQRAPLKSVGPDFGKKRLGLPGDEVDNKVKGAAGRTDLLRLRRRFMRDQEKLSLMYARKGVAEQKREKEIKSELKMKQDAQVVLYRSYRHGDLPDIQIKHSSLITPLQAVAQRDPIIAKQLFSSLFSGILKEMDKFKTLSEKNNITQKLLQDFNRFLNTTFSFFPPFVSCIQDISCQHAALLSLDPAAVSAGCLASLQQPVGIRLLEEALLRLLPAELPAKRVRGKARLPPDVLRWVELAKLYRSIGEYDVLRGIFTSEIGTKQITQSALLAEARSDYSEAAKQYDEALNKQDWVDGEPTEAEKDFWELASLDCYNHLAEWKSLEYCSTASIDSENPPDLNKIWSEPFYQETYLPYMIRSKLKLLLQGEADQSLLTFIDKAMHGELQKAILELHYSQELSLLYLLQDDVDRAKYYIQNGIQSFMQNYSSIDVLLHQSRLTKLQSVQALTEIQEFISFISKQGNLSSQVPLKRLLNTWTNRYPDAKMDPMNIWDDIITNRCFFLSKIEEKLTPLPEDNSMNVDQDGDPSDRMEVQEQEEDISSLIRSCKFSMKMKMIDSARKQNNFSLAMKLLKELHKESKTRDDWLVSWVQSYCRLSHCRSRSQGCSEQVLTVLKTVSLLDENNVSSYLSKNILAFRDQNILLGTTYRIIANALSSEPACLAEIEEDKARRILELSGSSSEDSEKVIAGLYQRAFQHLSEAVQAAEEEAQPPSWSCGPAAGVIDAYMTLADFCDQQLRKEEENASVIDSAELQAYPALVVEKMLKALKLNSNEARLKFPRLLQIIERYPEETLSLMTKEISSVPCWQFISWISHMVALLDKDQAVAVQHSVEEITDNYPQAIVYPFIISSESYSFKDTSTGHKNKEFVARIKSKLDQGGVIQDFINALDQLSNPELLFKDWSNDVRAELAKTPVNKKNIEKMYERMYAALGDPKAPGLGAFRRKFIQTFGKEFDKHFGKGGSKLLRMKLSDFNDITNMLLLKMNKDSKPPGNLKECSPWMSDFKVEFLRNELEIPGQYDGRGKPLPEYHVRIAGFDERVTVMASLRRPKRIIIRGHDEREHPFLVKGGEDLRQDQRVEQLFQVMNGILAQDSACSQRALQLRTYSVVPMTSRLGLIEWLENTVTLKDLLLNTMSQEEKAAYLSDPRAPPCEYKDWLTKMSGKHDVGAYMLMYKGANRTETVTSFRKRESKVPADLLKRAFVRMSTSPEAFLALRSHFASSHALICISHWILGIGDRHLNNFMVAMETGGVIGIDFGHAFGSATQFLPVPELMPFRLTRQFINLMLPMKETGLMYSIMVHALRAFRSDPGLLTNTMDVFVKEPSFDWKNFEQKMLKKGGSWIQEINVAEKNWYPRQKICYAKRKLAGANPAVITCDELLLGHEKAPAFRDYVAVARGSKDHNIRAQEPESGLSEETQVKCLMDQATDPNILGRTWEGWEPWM

`CCNC(=O)Nc1ccc(-c2nc3c(c(N4CC5CCC(C4)O5)n2)CS(=O)(=O)C3)cc1` [Example 15, 1-(4-(4-(8-oxa-3-azabicyclo[3.2.1]octan-3-yl)-6,6-dioxido-5,7-dihydrothieno[3,4-d]pyrimidin-2-yl)phenyl)-3-ethylurea] was tested, and the IC50 [1] was under 100 nM, the IC50 (mTOR) was under 100 nM and the IC50 [2] was over 10000 nM.

`O=C(NCCO)Nc1ccc(-c2nc3c(c(N4CC5CCC(C4)O5)n2)CS(=O)(=O)C3)cc1` [Example 16, 1-(4-(4-(8-oxa-3-azabicyclo[3.2.1]octan-3-yl)-6,6-dioxido-5,7-dihydrothieno[3,4-d]pyrimidin-2-yl)phenyl)-3-(2-hydroxyethyl)urea] gave an IC50 [1] of 1000 to 10000 nM, an IC50 (mTOR) of under 100 nM and an IC50 [2] of over 10000 nM.

Molecule `O=C(Nc1ccc(-c2nc3c(c(N4CCOCC4)n2)CS(=O)(=O)C3)cc1)NC1CC1` [Example 18, 1-cyclopropyl-3-(4-(4-morpholino-6,6-dioxido-5,7-dihydrothieno[3,4-d]pyrimidin-2-yl)phenyl)urea] has an IC50 [1] of 100 to 1000 nM, an IC50 (mTOR) of under 100 nM and an IC50 [2] of over 10000 nM.

With `O=C(NCCF)Nc1ccc(-c2nc3c(c(N4CC5CCC(C4)O5)n2)CS(=O)(=O)C3)cc1` [Example 22, 1-(4-(4-(8-oxa-3-azabicyclo[3.2.1]octan-3-yl)-6,6-dioxido-5,7-dihydrothieno[3,4-d]pyrimidin-2-yl)phenyl)-3-(2-fluoroethyl)urea] the IC50 [1] was 100 to 1000 nM, the IC50 (mTOR) was under 100 nM and the IC50 [2] was over 10000 nM.

`O=C(Nc1ccc(-c2nc3c(c(N4C5CCC4COC5)n2)CS(=O)(=O)C3)cc1)NC1CC1` [Example 26, 1-(4-(4-(3-oxa-8-azabicyclo[3.2.1]octan-8-yl)-6,6-dioxido-5,7-dihydrothieno[3,4-d]pyrimidin-2-yl)phenyl)-3-cyclopropylurea] gave an IC50 [1] of under 100 nM, an IC50 (mTOR) of under 100 nM and an IC50 [2] of over 10000 nM.

With `C[C@H]1COCCN1c1nc(-c2ccc(NC(=O)NCCCF)cc2)nc2c1CS(=O)(=O)C2` [Example 28, (S)-1-(3-fluoropropyl)-3-(4-(4-(3-methylmorpholino)-6,6-dioxido-5,7-dihydrothieno[3,4-d]pyrimidin-2-yl)phenyl)urea] the IC50 [1] was 100 to 1000 nM, the IC50 (mTOR) was 100 to 1000 nM and the IC50 [2] was over 10000 nM.

`O=C(NCCCF)Nc1ccc(-c2nc3c(c(N4CC5CCC(C4)O5)n2)CS(=O)(=O)C3)cc1` [Example 29, 1-(4-(4-(8-oxa-3-azabicyclo[3.2.1]octan-3-yl)-6,6-dioxido-5,7-dihydrothieno[3,4-d]pyrimidin-2-yl)phenyl)-3-(3-fluoropropyl)urea] was tested, and the IC50 [1] was 100 to 1000 nM, the IC50 (mTOR) was 100 to 1000 nM and the IC50 [2] was over 10000 nM.

Work on `CC1c2c(nc(-c3ccc(NC(=O)NC4CC4)cc3)nc2N2CCOCC2)CS1(=O)=O` (stereo not drawn) [Example 31, 1-cyclopropyl-3-(4-(5-methyl-4-morpholino-6,6-dioxido-5,7-dihydrothieno[3,4-d]pyrimidin-2-yl)phenyl)urea] yielded an IC50 [1] of under 100 nM, an IC50 (mTOR) of 100 to 1000 nM and an IC50 [2] of over 10000 nM.

`CCC1COCCN1c1nc(-c2ccc(NC(=O)NC3CC3)cc2)nc2c1C(C)S(=O)(=O)C2` (stereo not drawn) [Example 32, 1-cyclopropyl-3-(4-(4-(3-ethylmorpholino)-5-methyl-6,6-dioxido-5,7-dihydrothieno[3,4-d]pyrimidin-2-yl)phenyl)urea] showed an IC50 [1] of under 100 nM, an IC50 (mTOR) of under 100 nM and an IC50 [2] of over 10000 nM.

`C[C@H]1COCCN1c1nc(-c2ccc(NC(=O)Nc3ccncc3)cc2)nc2c1CS(=O)(=O)C2` [Example 35, (S)-1-(4-(4-(3-methylmorpholino)-6,6-dioxido-5,7-dihydrothieno[3,4-d]pyrimidin-2-yl)phenyl)-3-(pyridin-4-yl)urea] gave an IC50 [1] of under 100 nM, an IC50 (mTOR) of under 100 nM and an IC50 [2] of over 10000 nM.

`CCNC(=O)Nc1ccc(-c2nc3c(c(N4CCOC[C@@H]4C)n2)C(C)S(=O)(=O)C3)cc1` (stereo partly drawn) [Example 38, 1-ethyl-3-(4-(5-methyl-4-((S)-3-methylmorpholino)-6,6-dioxido-5,7-dihydrothieno[3,4-d]pyrimidin-2-yl)phenyl)urea] gave an IC50 [3] of 158 nM, an IC50 [1] of under 100 nM and an IC50 (mTOR) of under 100 nM.

`CCNC(=O)Nc1ccc(-c2nc3c(c(N4CCOC[C@@H]4C)n2)[C@@H](C)S(=O)(=O)C3)cc1` [Example 39, 1-ethyl-3-(4-((R)-5-methyl-4-((S)-3-methylmorpholino)-6,6-dioxido-5,7-dihydrothieno[3,4-d]pyrimidin-2-yl)phenyl)urea] showed an IC50 [3] of 100 nM, an IC50 [1] of under 100 nM and an IC50 (mTOR) of under 100 nM.

`CCNC(=O)Nc1ccc(-c2nc3c(c(N4CCOC[C@@H]4C)n2)[C@H](C)S(=O)(=O)C3)cc1` [Example 40, 1-ethyl-3-(4-((S)-5-methyl-4-((S)-3-methylmorpholino)-6,6-dioxido-5,7-dihydrothieno[3,4-d]pyrimidin-2-yl)phenyl)urea] gave an IC50 [3] of 200 nM, an IC50 [1] of under 100 nM and an IC50 (mTOR) of under 100 nM.

In the case of `CCNC(=O)Nc1ccc(-c2nc(N3CCOC[C@@H]3C)c3c(n2)C(C)(C)S(=O)(=O)C3C)cc1` (stereo partly drawn) [Example 42, 1-ethyl-3-(4-(5,7,7-trimethyl-4-((S)-3-methylmorpholino)-6,6-dioxido-5,7-dihydrothieno[3,4-d]pyrimidin-2-yl)phenyl)urea], the IC50 [3] is reported as 251 nM, the IC50 [1] is reported as under 100 nM and the IC50 (mTOR) is reported as under 100 nM.

`CC1c2nc(-c3ccc(NC(=O)NC4CC4)cc3)nc(N3CCOC[C@@H]3C)c2C(C)S1(=O)=O` (stereo partly drawn) [Example 44, 1-cyclopropyl-3-(4-(5,7-dimethyl-4-((S)-3-methylmorpholino)-6,6-dioxido-5,7-dihydrothieno[3,4-d]pyrimidin-2-yl)phenyl)urea] gave an IC50 [3] of 39.8 nM, an IC50 [1] of under 100 nM and an IC50 (mTOR) of under 100 nM.

Work on `CCCNC(=O)Nc1ccc(-c2nc3c(c(N4CCOC[C@@H]4C)n2)C(C)S(=O)(=O)C3)cc1` (stereo partly drawn) [Example 45, 1-(4-(5-methyl-4-((S)-3-methylmorpholino)-6,6-dioxido-5,7-dihydrothieno[3,4-d]pyrimidin-2-yl)phenyl)-3-propylurea] yielded an IC50 [3] of 398 nM, an IC50 [1] of under 100 nM and an IC50 (mTOR) of under 100 nM.

Molecule `CNC(=O)Nc1ccc(-c2nc(N3CCOC[C@@H]3C)c3c(n2)C(C)(C)S(=O)(=O)C3)cc1F` [Example 65, (S)-1-(4-(7,7-dimethyl-4-(3-methylmorpholino)-6,6-dioxido-5,7-dihydrothieno[3,4-d]pyrimidin-2-yl)-2-fluorophenyl)-3-methylurea] has an IC50 [1] of under 100 nM, an IC50 (mTOR) of 100 to 1000 nM and an IC50 [2] of over 10000 nM.
